The values below come from patent US20060205733A1, “Endothelin a receptor antagonists in combination with phosphodiesterase 5 inhibitors and uses thereof” (Encysive Pharmaceuticals, priority 2004, published 2006).

Structures can show the parent of a compound that is named as a salt. Where two headings read alike, the source gives them in different places. A value given as a limit tells only on which side of the number the result lay.

Data set [1] has as its target T1, ETB (Homo sapiens, UniProt P24530).
T1 sequence (P24530 27-442): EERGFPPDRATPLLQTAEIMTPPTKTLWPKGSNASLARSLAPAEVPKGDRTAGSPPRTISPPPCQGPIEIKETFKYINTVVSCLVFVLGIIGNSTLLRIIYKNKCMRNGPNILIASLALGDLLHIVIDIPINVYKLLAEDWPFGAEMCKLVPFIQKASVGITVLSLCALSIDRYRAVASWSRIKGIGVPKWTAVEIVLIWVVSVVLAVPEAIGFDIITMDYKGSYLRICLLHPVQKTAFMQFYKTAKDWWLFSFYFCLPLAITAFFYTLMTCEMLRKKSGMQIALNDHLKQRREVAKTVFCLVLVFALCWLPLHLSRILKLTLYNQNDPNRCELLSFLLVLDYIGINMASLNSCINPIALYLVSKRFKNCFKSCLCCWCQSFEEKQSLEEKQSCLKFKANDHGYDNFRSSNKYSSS
The conditions noted are these: read-out: Binding K1 (nM) to ETB; cited from earlier work.

For data set [2] the following is noted: in vivo; cited from earlier work.
In data set [3] the test system is cytochrome P450 enzymes. The conditions noted are these: in vivo; cited from earlier work.
Data set [4] has as its target bile salt export pump (Homo sapiens, UniProt O95342). The settings on record: cited from earlier work.
Data set [5] has as its target T2, ETA (Homo sapiens, UniProt P25101).
T2 sequence (P25101 21-427): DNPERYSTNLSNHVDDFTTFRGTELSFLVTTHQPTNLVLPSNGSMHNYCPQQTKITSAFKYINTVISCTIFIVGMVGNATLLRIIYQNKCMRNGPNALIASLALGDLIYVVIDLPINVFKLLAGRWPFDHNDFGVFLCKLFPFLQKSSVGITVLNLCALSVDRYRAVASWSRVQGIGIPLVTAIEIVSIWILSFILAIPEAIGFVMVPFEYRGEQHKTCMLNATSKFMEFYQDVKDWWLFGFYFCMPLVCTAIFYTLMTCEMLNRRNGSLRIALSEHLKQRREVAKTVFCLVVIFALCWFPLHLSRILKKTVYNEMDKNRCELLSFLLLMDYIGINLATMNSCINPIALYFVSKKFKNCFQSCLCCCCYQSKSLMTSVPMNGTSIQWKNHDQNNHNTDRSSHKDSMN
The settings on record: cited from earlier work; for Selectivity: ETA versus ETB, Table 2.

A short description of data set [6]: Pharmacokinetic drug interaction study, sitaxsentan and sildenafil. It counts as in vivo, human. The conditions noted are these: for Cmax: healthy subjects; for Cmax / AUC0-t / AUC∞ / CL/F / t½ / λz / AUC(0-inf) / Vd/F / half-life: mean ± SD; for Tmax: median; for Vd/F: read-out: Vz/F; for half-life: read-out: t½ (converted). How it is done:
A pharmacokinetic drug interaction study was performed using 24 individuals. In the study, a group of 24 normal, healthy volunteers participated in two treatment periods. […] During the other treatment period, the subjects received placebo for seven days and 100 mg of VIAGRA on the seventh day. Twelve subjects were randomly assigned to each treatment period. When the subjects finished one treatment period, they were switched to the other treatment period.
Samples were drawn (in duplicate) once on days 1, 3, 5 and 6; 15 times on day 7 and once again on day 8 for each treatment period. The samples were stored at a nominal temperature of −20° C. for a duration not exceeding 38 days. All samples were analyzed with a set of calibration standards and low, medium and high concentration Quality Control samples.

The target in data set [7] is T3, ETA (Sus scrofa, UniProt Q29010).
T3 construct: from tissue; host or cells: aortic smooth muscle, ventricle membranes, cultured aortic smooth muscle cells
T3 sequence (Q29010 21-427): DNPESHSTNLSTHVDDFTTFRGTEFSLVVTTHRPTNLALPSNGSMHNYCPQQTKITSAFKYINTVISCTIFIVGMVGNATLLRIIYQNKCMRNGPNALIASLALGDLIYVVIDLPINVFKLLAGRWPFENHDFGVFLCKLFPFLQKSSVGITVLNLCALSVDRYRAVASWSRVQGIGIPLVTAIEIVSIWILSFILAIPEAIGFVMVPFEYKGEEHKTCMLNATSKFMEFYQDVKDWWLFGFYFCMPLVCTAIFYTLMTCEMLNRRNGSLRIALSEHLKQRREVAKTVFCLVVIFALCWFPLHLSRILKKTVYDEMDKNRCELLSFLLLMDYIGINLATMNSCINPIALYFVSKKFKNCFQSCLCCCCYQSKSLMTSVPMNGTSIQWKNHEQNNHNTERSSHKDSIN
The settings on record: read-out: IC50, inhibition of 125I-labeled endothelin-1 binding, cited from earlier work.

Data set [8] deals with T1, ETB. The conditions noted are these: concentrations up to 100 μM; cited from earlier work.
Setting [9] is: read-out: Binding K1 (nM) to ETA.
[10] abbreviates: single 100 mg oral sildenafil after 100 mg sitaxsentan daily for seven days.
[11] abbreviates: single 100 mg oral sildenafil after placebo daily for seven days.
The mark [12] stands for this setting: sitaxsentan versus placebo pretreatment, natural log-transformed data.
Where [13] appears, read: human, plasma, po, 100 mg, single 100 mg oral sildenafil after 100 mg sitaxsentan daily for seven days.
[14] abbreviates: human, plasma, po, 100 mg, single 100 mg oral sildenafil after placebo daily for seven days.

Sequence of bile salt export pump (O95342 whole entry): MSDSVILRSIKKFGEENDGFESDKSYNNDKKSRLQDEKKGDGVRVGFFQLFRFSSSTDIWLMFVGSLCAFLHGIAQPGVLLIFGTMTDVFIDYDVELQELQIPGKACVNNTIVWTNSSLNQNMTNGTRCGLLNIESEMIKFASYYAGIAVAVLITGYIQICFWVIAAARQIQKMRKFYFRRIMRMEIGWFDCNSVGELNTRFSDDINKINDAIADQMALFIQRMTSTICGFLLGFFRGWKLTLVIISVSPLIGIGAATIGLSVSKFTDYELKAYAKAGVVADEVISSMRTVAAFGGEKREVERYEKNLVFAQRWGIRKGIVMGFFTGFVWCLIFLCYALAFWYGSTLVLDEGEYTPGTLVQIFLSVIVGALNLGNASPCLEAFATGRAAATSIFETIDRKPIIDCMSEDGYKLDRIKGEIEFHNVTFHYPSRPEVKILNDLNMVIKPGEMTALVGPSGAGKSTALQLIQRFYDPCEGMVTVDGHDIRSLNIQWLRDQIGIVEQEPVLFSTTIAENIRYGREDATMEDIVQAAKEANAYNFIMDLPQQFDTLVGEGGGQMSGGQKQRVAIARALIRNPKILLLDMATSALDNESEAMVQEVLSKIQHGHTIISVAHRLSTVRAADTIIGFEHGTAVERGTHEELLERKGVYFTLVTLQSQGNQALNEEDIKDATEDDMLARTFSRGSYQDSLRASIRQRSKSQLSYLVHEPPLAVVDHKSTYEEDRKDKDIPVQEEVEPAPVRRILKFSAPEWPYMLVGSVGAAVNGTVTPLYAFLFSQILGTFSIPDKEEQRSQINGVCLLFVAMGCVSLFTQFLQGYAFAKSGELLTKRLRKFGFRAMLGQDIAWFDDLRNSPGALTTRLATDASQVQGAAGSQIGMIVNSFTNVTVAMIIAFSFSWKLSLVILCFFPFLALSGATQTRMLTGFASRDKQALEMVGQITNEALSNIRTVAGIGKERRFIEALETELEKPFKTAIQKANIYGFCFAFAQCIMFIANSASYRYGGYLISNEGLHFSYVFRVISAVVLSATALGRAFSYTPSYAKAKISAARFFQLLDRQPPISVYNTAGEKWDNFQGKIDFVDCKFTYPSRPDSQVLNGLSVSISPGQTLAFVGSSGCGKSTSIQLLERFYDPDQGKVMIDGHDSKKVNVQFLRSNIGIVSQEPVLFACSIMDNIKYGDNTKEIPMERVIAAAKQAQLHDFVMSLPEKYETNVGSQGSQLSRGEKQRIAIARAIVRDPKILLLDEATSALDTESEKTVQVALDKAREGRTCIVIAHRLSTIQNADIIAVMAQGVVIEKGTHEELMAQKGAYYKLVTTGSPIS

For the compound `Cc1noc(NS(=O)(=O)c2cccc3c(N(C)C)cccc23)c1C` [BMS-182874], in data set [1], the Ki was above 50000 nM.
For the compound `COc1ccccc1Oc1c(NS(=O)(=O)c2ccc(C(C)(C)C)cc2)nc(-c2ncccn2)nc1OCCO` [Bosentan], in data set [2], the Metabolism result was “Through 3A4 and 2C9”; the Route of elimination result was “Hepatic”; the t1/2 is 5 h. Also, the “Induction of cytochrome P450 enzymes” value in data set [3] is “Causes inhibition,”. Moreover, the “Effect on bile salt” value in data set [4] is “Inhibits bile salt”.
On to `CCCCc1ccc2c(n1)[C@@H](c1ccc(OC)cc1C[C@H](C)C(=O)O)[C@H](C(=O)O)[C@H]2c1ccc2c(c1)OCO2` [J-104132], for which the Selectivity in data set [5] is 2.9. In addition, the Ki in data set [5] (setting [9]) was 0.034 nM; in data set [1], 0.1 nM.
With `COc1cc(OC)nc(O[C@H](C(=O)O)C(OC)(c2ccccc2)c2ccccc2)n1` [LU-135252], in data set [5], the Selectivity is on record as 130. Further, the Ki in data set [5] (setting [9]) is 1.4 nM; in data set [1], 184 nM.
As to `CCCc1nn(C)c2c(=O)[nH]c(-c3cc(S(=O)(=O)N4CCNCC4)ccc3OCC)nc12` [N-Desmethyl Sildenafil], the “Effect of sitaxsentan on levels of the active metabolite” value in data set [6] (in the presence of sitaxsentan) was “No effects”. In addition, in data set [6] (setting [10]), the Cmax is on record as 104 ± 40.8 ng/mL, the AUC0-t turned out to be 389 ± 105 ng·h/mL, the “AUC∞” value is 425 ± 115 ng·h/mL and the CL/F was 529 ± 164 mL/min. In addition, in data set [6] (setting [10]), the t½ is 5.14 ± 2.13 h, the λz came to 0.1544 ± 0.0552 h⁻¹ and the Tmax came out at 1.00 h. Further, in data set [6] (setting [11]), the Cmax stood at 109 ± 53.1 ng/mL, the AUC0-t was found to be 372 ± 107 ng·h/mL, the “AUC∞” value worked out at 440 ± 112 ng·h/mL and the apparent clearance CL/F is 524 ± 234 mL/min. Further, in data set [6] (setting [11]), the t½ is given as 05.1 ± 1.63 h, the λz came out at 0.1506 ± 0.0569 h⁻¹ and the Tmax was 1.00 h. In data set [6] (setting [12]), the “AUC0-t, geometric mean ratio (%) estimate” value is on record as 112.43%; the “AUC∞, geometric mean ratio (%) estimate” value is listed as 105.78%; the “CL/F, geometric mean ratio (%) estimate” value was 88.95%; the “Cmax, geometric mean ratio (%) estimate” value was 100.70%. For the same compound, in data set [6] (setting [12]), the “Vz/F, geometric mean ratio (%) estimate” value is recorded as 94.89%.
For the compound `COc1ccccc1Oc1c(NS(=O)(=O)c2ccc(C)cn2)nc(-c2ccnc(-c3nnn[nH]3)c2)nc1OCCO` [Ro-61.1790], in data set [5], the Selectivity was 1000. Moreover, the Ki was 0.13 nM in data set [5] (setting [9]) and above 130 nM in data set [1].
For the compound `CC1(C)CC[C@]2(C(=O)[O-])CC[C@]3(COC(=O)/C=C/c4cc([O-])ccc4NC(=O)/C=C/C(=O)O)C(=CC[C@@H]4[C@@]5(C)CCC(=O)C(C)(C)[C@@H]5CC[C@]43C)[C@@H]2C1.[Na+].[Na+]` [S-0139], the Selectivity in data set [5] was 1000. The results for the Ki in data set [5] (setting [9]) and in data set [1] were 1 nM and 1000 nM, respectively.
On to `CCCOc1ccc2c(c1)[C@@H](c1ccc(OC)cc1OCC(=O)O)[C@H](C(=O)O)[C@H]2c1ccc2c(c1)OCO2` [SB-209670], for which the Selectivity in data set [5] is 90.
For `CCCOc1ccc2c(c1)[C@@H](c1ccc(OC)cc1OCCO)[C@H](C(=O)O)[C@H]2c1ccc2c(c1)OCO2` [SB-217242], the Selectivity in data set [5] is reported as 101.
For the compound `CCCc1nn(C)c2c(=O)[nH]c(-c3cc(S(=O)(=O)N4CCN(C)CC4)ccc3OCC)nc12` [Sildenafil, 1-[[3-(6,7-dihydro-1-methyl-7-oxo-3-propyl-1H-pyrazolo[4,3-d]pyrimidin-5-yl)-4-ethoxyphenyl]sulfonyl]-4-methylpiperazine citrate], the Cmax was determined as 440 ± 232 ng/mL in data set [6] (human, plasma, po, 100 mg, single 100 mg oral sildenafil after 100 mg sitaxsentan daily for seven days, read-out: Cmax) and 377 ± 208 ng/mL in data set [6] (human, plasma, po, 100 mg, single 100 mg oral sildenafil after placebo daily for seven days, read-out: Cmax). In addition, the AUC(0-inf) in data set [6] (setting [13]) worked out at 1650 ng·h/mL; in data set [6] (setting [14]), 1300 ng·h/mL. In addition, the AUC0-t was determined as 1580 ng·h/mL in data set [6] (human, plasma, po, 100 mg, single 100 mg oral sildenafil after 100 mg sitaxsentan daily for seven days, read-out: AUC0-t) and 1220 ng·h/mL in data set [6] (human, plasma, po, 100 mg, single 100 mg oral sildenafil after placebo daily for seven days, read-out: AUC0-t). Further, the Vd/F came out at 34.8 ± 11.5 L in data set [6] (setting [13]) and 43.6 ± 18.9 L in data set [6] (setting [14]). Further, the half-life in data set [6] (setting [13]) was 2.82 ± 0.45 h; in data set [6] (setting [14]), 2.76 ± 0.45 h. The Tmax was found to be 1.25 h in data set [6] (human, plasma, po, 100 mg, single 100 mg oral sildenafil after 100 mg sitaxsentan daily for seven days, read-out: Tmax) and 1 h in data set [6] (human, plasma, po, 100 mg, single 100 mg oral sildenafil after placebo daily for seven days, read-out: Tmax). Further, the “Increase of AUC∞ (area under the plasma concentration/time curve)” value in data set [6] (in the presence of sitaxsentan) is 28%. Besides, the “Increase of Cmax (maximum concentration)” value in data set [6] (in the presence of sitaxsentan) was determined as 18%. In addition, the CL/F in data set [6] (setting [10]) came out at 147 ± 56.4 mL/min; in data set [6] (setting [11]), 184 ± 69.0 mL/min. Further, the figures for the λz in data set [6] (setting [10]) and in data set [6] (setting [11]) were 0.2514 ± 0.0364 h⁻¹ and 0.2584 ± 0.0444 h⁻¹, respectively.
Regarding `Cc1ccc(-c2c(NS(=O)(=O)c3ccc(C(C)(C)CO)cc3)ncnc2OCCOc2ncc(Br)cn2)cc1` [T-0201], the Ki in data set [5] (setting [9]) was 0.015 nM.
`COc1nc(C)cnc1NS(=O)(=O)c1cccnc1-c1ccc(CC(C)(C)C(=O)O)cc1` [ZD-1811]: in data set [5], the Selectivity was 1500. Moreover, the Ki in data set [5] (estimated from the IC∞ value, read-out: Binding K1 (nM) to ETA, K1 estimated from the IC∞ value) is 1.3 nM; in data set [1] it was above 2000 nM.
On to FR-139317, for which the Ki in data set [1] was 7300 nM.
“cyclo(D-Glu-L-Ala-allo-D-Ile-L-Leu-D-Trp) [BE-18257B]”: the IC50 in data set [7] (aortic smooth muscle) is 1400 nM; in data set [7] (cultured aortic smooth muscle cells), 500 nM; in data set [7] (ventricle membranes), 800 nM. In data set [8], the “Inhibition of binding to receptors in tissues in which ETB predominates” value is “fails to inhibit binding”.
